# Laboratory results: patent US9018391B2, “Inhibitors of beta-secretase” (Boehringer Ingelheim International GmbH, priority 2012, dated 2015)
# Columns and labels:
# Human Hepatocytes = assay: In Vitro Hepatocyte Stability Assay (Assay 4); type: in vitro ADME; conditions: predicted blood clearance as percent of hepatic blood flow
# Method: In Vitro Hepatocyte Stability Assay (Assay 4)
# The metabolic degradation of test compounds was assayed in a hepatocyte suspension. Cryopreserved hepatocytes were incubated in an appropriate buffer system (e.g., Dulbecco's modified eagle medium plus 3.5 μg glucagon/500 mL, 2.5 mg insulin/500 mL and 3.75 mg/500 mL hydrocortison) containing 5% species serum. Following a 30 min preincubation in an incubator (37° C., 10% CO2), 5 μl of test compound solution (80 μM; from 2 mM in DMSO stock solution diluted 1:25 with medium) were added into 395 μl hepatocyte suspension (cell density in the range 0.25−5×10^6 cells/mL, typically 1×10^6 cells/mL; final concentration of test compound final DMSO concentration […]).
# The cells were incubated for six h (incubator, orbital shaker) and samples (25 μl) were taken at 0, 0.5, 1, 2, 4 and 6 h. Samples were transferred into acetonitrile and pelleted by centrifugation (5 min). The supernatant was transferred to a new 96 DeepWell™ plate, evaporated under nitrogen and resuspended. Decline of compound was analyzed by HPLC-MS/MS. CLint (in vitro hepatic intrinsic clearance) was calculated as follows: CLint=Dose/AUC=(C0/CD)/(AUD+Clast/k)×1000/60
# C0: initial concentration in the incubation [μM];
# CD: cell density of vital cells [cells/mL];
# AUD: area under the data [μM×h];
# Clast: concentration of last data point [μM];
# k: slope of the regression line for compound decline [h^−1].
# The calculated in vitro hepatic intrinsic clearance was scaled up to the intrinsic in vivo hepatic clearance (Clint in vivo) and used to predict hepatic in vivo blood clearance (CL) by the use of a liver model (well-stirred model), as follows: CLint,in vivo[mL/min/kg]=(CLint[μL/min/10^6 cells]×hepatocellularity[10^6 cells/g liver]×liver factor [g/kg body weight])/1000 CL[mL/min/kg]=CLint,to vivo×hepatic blood flow[ml/min/kg]/(CLint,in vivo[ml/min/kg]+hepatic blood flow[mL/min/kg])
# The in vivo blood clearance was transformed into percent of the hepatic blood flow (% Qh): % Qh=CL[mL/min/kg]/hepatic blood flow[mL/min/kg])×100
# Hepatocellularity, human: 1.2×10^7 cells/g liver;
# Liver factor, human: 25.7 g/kg body weight;
# Hepatic blood flow, human: 21 mL/(min×kg).
# [1] = tested on: brain amyloid peptides Aβ1-x; assay: Rat Brain Aβ Lowering Assay (Assay 5); type: in vivo; conditions: 3 hrs after dosing
# Method: Rat Brain Aβ Lowering Assay (Assay 5)
# The animals were sacrificed 3 hrs after dosing, and brains were excised, dissected into cerebellum and left and right cerebra and flash-frozen in liquid nitrogen.
# The cerebrum was homogenized (5 volumes per weight) in 20 mM Tris-HCL, pH 8.5, 0.2% Triton-X100 supplemented with protease inhibitors (cOmplete, Roche Applied Science) at 4° C. using a glass Dounce homogenizer. The homogenate was centrifuged at 120,000×g for 60 min at 4° C., and the supernatant was collected and analyzed for […] using immunoassay with chemiluminescent detection (Meso-Scale Discovery, Rockville, Md. (MSD)).
# Streptavidin 96-well plates (MSD) were pre-blocked with 5% Blocker A solution (MSD) for 1 hr at rt on an orbital shaker and washed 4 times with phosphate buffered saline (PBS). The wells were pre-coated with 20 ng/well of biotinylated antibody SIG-39155 (Clone M3.2, specific for amino acids 10-15 of the rodent Aβ) for 1 hr at rt and washed 4 times with PBS. For Aβ1-x analysis, 25 μl of either the cleared brain lysates or Aβ1-40 standards (8-500 pg/ml, with 2× increment) were incubated for 1 hr at rt with constant shaking. The wells were washed 4 times with PBS, and 25 μl of the detection antibody (Sulfo-TAG labeled anti-Aβ40 antibody supplied by MSD) was added and incubated for 1 hr at rt. After 4 washes with PBS, 150 μl of the chemiluminescence detection reagent (Read Buffer T, MSD) was added, and the plate was read on an MSD Sector Imager 6000 instrument. The calibration curve was fit into a non-linear four-parameter regression model, and the Aβ1-x concentrations were calculated for each well containing the cleared brain lysates. The percent of Aβ lowering was calculated based on the difference with the average Aβ concentration obtained for the brains from the animals treated with vehicle alone.
SMILES,In vitro Human Hepatocytes % Qh @ 1 μM (assay 4) (Human Hepatocytes) [% Qh],% Aβ Reduction ([1]; single oral dose 12.5 mg/kg) [%],% Aβ Reduction ([1]; single oral dose 25 mg/kg) [%]
C[C@@H]1C[C@@]2(Cc3ccc(C#N)cc3[C@]23N=C(N)N(CC2(F)CCOCC2)C3=O)C[C@H](C)[C@H]1O [Example 4],6.1,21,
CC[C@@H]1C[C@@]2(Cc3ccc(C#N)cc3[C@]23N=C(N)N(CC(C)(C)F)C3=O)C[C@H](C)[C@H]1O [Example 7],13,,58
C[C@@H]1C[C@@]2(Cc3ccc(C#N)cc3[C@]23N=C(N)N(CC(C)(C)F)C3=O)C[C@H](C)[C@H]1O [Example 2],1.6,40,
CC[C@@H]1C[C@]2(CC[C@H]1O)Cc1ccc(C#N)cc1[C@]21N=C(N)N(CC(C)(C)F)C1=O [Example 9],12.4,,42
C[C@@H]1C[C@@]2(Cc3ccc(C#N)cc3[C@]23N=C(N)N(CCC(F)(F)F)C3=O)C[C@H](C)[C@H]1O [Example 1],0,,25
